# Data reported in PubChem BioAssay (NCI).
#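 Five compound concentrations were applied to cells in 96-well plates for 48 hours; endpoints were derived by simple linear interpolation of the resulting dose-response curve. TGI is the concentration that stops growth completely.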
# Tests used:
# Assay in all cases: NCI tumour cell line growth inhibition, 48 h
# HCT-15 colon = system: HCT-15 colon
# MDA-MB-435 = system: MDA-MB-435
# HS 578T breast = system: HS 578T breast
# SK-MEL-5 melanoma = system: SK-MEL-5 melanoma
# SNB-75 CNS = system: SNB-75 CNS
# KM12 colon = system: KM12 colon
# SK-MEL-28 melanoma = system: SK-MEL-28 melanoma
# NCI-H460 lung = system: NCI-H460 lung
# HT29 colon = system: HT29 colon
# A549 NSCLC = system: A549 NSCLC
# A498 renal = system: A498 renal
# IGROV1 ovarian = system: IGROV1 ovarian
# RXF 393 renal = system: RXF 393 renal
# ACHN renal = system: ACHN renal
# PC-3 prostate = system: PC-3 prostate
# 786-0 renal = system: 786-0 renal
# BT-549 breast = system: BT-549 breast
# OVCAR-4 ovarian = system: OVCAR-4 ovarian
# OVCAR-3 ovarian = system: OVCAR-3 ovarian
# SF-295 CNS = system: SF-295 CNS
# HOP-92 NSCLC = system: HOP-92 NSCLC
# HL-60(TB) leukemia = system: HL-60(TB) leukemia
# SF-539 CNS = system: SF-539 CNS
# OVCAR-8 ovarian = system: OVCAR-8 ovarian
# K-562 leukemia = system: K-562 leukemia
# MDA-N = system: MDA-N
# MOLT-4 leukemia = system: MOLT-4 leukemia
# TK-10 renal = system: TK-10 renal
# UO-31 renal = system: UO-31 renal
# OVCAR-5 ovarian = system: OVCAR-5 ovarian
# NCI-H23 lung = system: NCI-H23 lung
# HCT-116 colon = system: HCT-116 colon
# HOP-62 NSCLC = system: HOP-62 NSCLC
# UACC-257 melanoma = system: UACC-257 melanoma
# M14 melanoma = system: M14 melanoma
# SK-MEL-2 melanoma = system: SK-MEL-2 melanoma
# U251 CNS = system: U251 CNS
# LOX IMVI melanoma = system: LOX IMVI melanoma
# SF-268 CNS = system: SF-268 CNS
# T-47D breast = system: T-47D breast
# NCI-H522 lung = system: NCI-H522 lung
# EKVX NSCLC = system: EKVX NSCLC
# MCF7 breast = system: MCF7 breast
# DU-145 prostate = system: DU-145 prostate
# SW-620 colon = system: SW-620 colon
# RPMI-8226 leukemia = system: RPMI-8226 leukemia
# NCI/ADR-RES ovarian = system: NCI/ADR-RES ovarian
# MDA-MB-231 breast = system: MDA-MB-231 breast
# CAKI-1 renal = system: CAKI-1 renal
# SR leukemia = system: SR leukemia
# NCI-H226 lung = system: NCI-H226 lung
# MALME-3M melanoma = system: MALME-3M melanoma
# UACC-62 melanoma = system: UACC-62 melanoma
# CCRF-CEM leukemia = system: CCRF-CEM leukemia
# SK-OV-3 ovarian = system: SK-OV-3 ovarian
# SNB-19 CNS = system: SNB-19 CNS
# COLO 205 colon = system: COLO 205 colon
# SN12C renal = system: SN12C renal
compound,measurement,setting,value
Cc1n[nH]c(=S)n1/N=C/c1ccc(-c2ccc(Cl)cc2)o1,TGI,HCT-15 colon,> 100 µM
same,TGI,MDA-MB-435,> 100 µM
same,TGI,HS 578T breast,> 100 µM
same,TGI,SK-MEL-5 melanoma,> 100 µM
same,TGI,SNB-75 CNS,82.9 µM
same,TGI,KM12 colon,> 100 µM
same,TGI,SK-MEL-28 melanoma,> 100 µM
same,TGI,NCI-H460 lung,> 100 µM
same,TGI,HT29 colon,> 100 µM
same,TGI,A549 NSCLC,> 100 µM
same,TGI,A498 renal,> 100 µM
same,TGI,IGROV1 ovarian,> 100 µM
same,TGI,RXF 393 renal,> 100 µM
same,TGI,ACHN renal,> 100 µM
same,TGI,PC-3 prostate,> 100 µM
same,TGI,786-0 renal,> 100 µM
same,TGI,BT-549 breast,> 100 µM
same,TGI,OVCAR-4 ovarian,> 100 µM
same,TGI,OVCAR-3 ovarian,> 100 µM
same,TGI,SF-295 CNS,> 100 µM
same,TGI,HOP-92 NSCLC,> 100 µM
same,TGI,HL-60(TB) leukemia,> 100 µM
same,TGI,SF-539 CNS,> 100 µM
same,TGI,OVCAR-8 ovarian,> 100 µM
same,TGI,K-562 leukemia,> 100 µM
same,TGI,MDA-N,> 100 µM
same,TGI,MOLT-4 leukemia,> 100 µM
same,TGI,TK-10 renal,> 100 µM
same,TGI,UO-31 renal,> 100 µM
same,TGI,OVCAR-5 ovarian,> 100 µM
same,TGI,NCI-H23 lung,> 100 µM
same,TGI,HCT-116 colon,> 100 µM
same,TGI,HOP-62 NSCLC,> 100 µM
same,TGI,UACC-257 melanoma,> 100 µM
same,TGI,M14 melanoma,> 100 µM
same,TGI,SK-MEL-2 melanoma,> 100 µM
same,TGI,U251 CNS,> 100 µM
same,TGI,LOX IMVI melanoma,> 100 µM
same,TGI,SF-268 CNS,> 100 µM
same,TGI,T-47D breast,> 100 µM
same,TGI,NCI-H522 lung,> 100 µM
same,TGI,EKVX NSCLC,> 100 µM
same,TGI,MCF7 breast,> 100 µM
same,TGI,DU-145 prostate,> 100 µM
same,TGI,SW-620 colon,> 100 µM
same,TGI,RPMI-8226 leukemia,> 100 µM
same,TGI,NCI/ADR-RES ovarian,> 100 µM
same,TGI,MDA-MB-231 breast,> 100 µM
same,TGI,CAKI-1 renal,> 100 µM
same,TGI,SR leukemia,> 100 µM
same,TGI,NCI-H226 lung,> 100 µM
O=C(O)CNCP(=O)(O)O,TGI,HCT-15 colon,> 100 µM
same,TGI,MDA-MB-435,> 100 µM
same,TGI,MALME-3M melanoma,> 100 µM
same,TGI,HS 578T breast,> 100 µM
same,TGI,SK-MEL-5 melanoma,> 100 µM
same,TGI,SNB-75 CNS,> 100 µM
same,TGI,KM12 colon,> 100 µM
same,TGI,SK-MEL-28 melanoma,> 100 µM
same,TGI,NCI-H460 lung,> 100 µM
same,TGI,UACC-62 melanoma,> 100 µM
same,TGI,HT29 colon,> 100 µM
same,TGI,A549 NSCLC,> 100 µM
same,TGI,A498 renal,> 100 µM
same,TGI,IGROV1 ovarian,> 100 µM
same,TGI,RXF 393 renal,> 100 µM
same,TGI,ACHN renal,> 100 µM
same,TGI,PC-3 prostate,> 100 µM
same,TGI,786-0 renal,> 100 µM
same,TGI,BT-549 breast,> 100 µM
same,TGI,OVCAR-4 ovarian,> 100 µM
same,TGI,OVCAR-3 ovarian,> 100 µM
same,TGI,SF-295 CNS,> 100 µM
same,TGI,HOP-92 NSCLC,> 100 µM
same,TGI,HL-60(TB) leukemia,> 100 µM
same,TGI,SF-539 CNS,> 100 µM
same,TGI,OVCAR-8 ovarian,> 100 µM
same,TGI,CCRF-CEM leukemia,> 100 µM
same,TGI,K-562 leukemia,> 100 µM
same,TGI,MDA-N,> 100 µM
same,TGI,MOLT-4 leukemia,> 100 µM
same,TGI,TK-10 renal,> 100 µM
same,TGI,SK-OV-3 ovarian,> 100 µM
same,TGI,OVCAR-5 ovarian,> 100 µM
same,TGI,NCI-H23 lung,> 100 µM
same,TGI,HCT-116 colon,> 100 µM
same,TGI,HOP-62 NSCLC,> 100 µM
same,TGI,UACC-257 melanoma,> 100 µM
same,TGI,SNB-19 CNS,> 100 µM
same,TGI,M14 melanoma,> 100 µM
same,TGI,SK-MEL-2 melanoma,> 100 µM
same,TGI,U251 CNS,> 100 µM
same,TGI,LOX IMVI melanoma,> 100 µM
same,TGI,SF-268 CNS,> 100 µM
same,TGI,COLO 205 colon,> 100 µM
same,TGI,T-47D breast,> 100 µM
same,TGI,NCI-H522 lung,> 100 µM
same,TGI,EKVX NSCLC,> 100 µM
same,TGI,SN12C renal,> 100 µM
same,TGI,MCF7 breast,> 100 µM
same,TGI,DU-145 prostate,> 100 µM
same,TGI,SW-620 colon,> 100 µM
same,TGI,RPMI-8226 leukemia,> 100 µM
same,TGI,NCI/ADR-RES ovarian,> 100 µM
same,TGI,MDA-MB-231 breast,> 100 µM
same,TGI,CAKI-1 renal,> 100 µM
same,TGI,SR leukemia,> 100 µM
same,TGI,NCI-H226 lung,> 100 µM
O=C(c1cccc(F)c1F)N1CCc2c([nH]c3ccccc23)C1c1ccc2c(c1)OCO2 (stereo not given),TGI,HCT-15 colon,> 100 µM
same,TGI,MDA-MB-435,6.09 µM
same,TGI,MALME-3M melanoma,> 100 µM
same,TGI,HS 578T breast,> 100 µM
same,TGI,SK-MEL-5 melanoma,13.4 µM
same,TGI,SNB-75 CNS,22.2 µM
same,TGI,KM12 colon,32.7 µM
same,TGI,SK-MEL-28 melanoma,> 100 µM
same,TGI,NCI-H460 lung,29.9 µM
same,TGI,UACC-62 melanoma,48.8 µM
same,TGI,HT29 colon,> 100 µM
same,TGI,A549 NSCLC,72.5 µM
same,TGI,A498 renal,> 100 µM
same,TGI,IGROV1 ovarian,> 100 µM
same,TGI,RXF 393 renal,35.4 µM
same,TGI,ACHN renal,> 100 µM
same,TGI,PC-3 prostate,39.2 µM
same,TGI,786-0 renal,> 100 µM
same,TGI,BT-549 breast,> 100 µM
same,TGI,OVCAR-4 ovarian,67.8 µM
same,TGI,OVCAR-3 ovarian,5.26 µM
same,TGI,SF-295 CNS,26.3 µM
same,TGI,HOP-92 NSCLC,> 100 µM
same,TGI,HL-60(TB) leukemia,18.7 µM
same,TGI,SF-539 CNS,21.4 µM
same,TGI,OVCAR-8 ovarian,> 100 µM
same,TGI,CCRF-CEM leukemia,> 100 µM
same,TGI,K-562 leukemia,> 100 µM
same,TGI,MDA-N,7.01 µM
same,TGI,MOLT-4 leukemia,> 100 µM
same,TGI,TK-10 renal,> 100 µM
same,TGI,UO-31 renal,47.7 µM
same,TGI,SK-OV-3 ovarian,51.9 µM
same,TGI,OVCAR-5 ovarian,> 100 µM
same,TGI,NCI-H23 lung,> 100 µM
same,TGI,HCT-116 colon,> 100 µM
same,TGI,HOP-62 NSCLC,2.83 µM
same,TGI,UACC-257 melanoma,60.4 µM
same,TGI,SNB-19 CNS,61.4 µM
same,TGI,M14 melanoma,18.4 µM
same,TGI,SK-MEL-2 melanoma,16.5 µM
same,TGI,U251 CNS,> 100 µM
same,TGI,LOX IMVI melanoma,> 100 µM
same,TGI,SF-268 CNS,> 100 µM
same,TGI,COLO 205 colon,12.9 µM
same,TGI,T-47D breast,> 100 µM
same,TGI,NCI-H522 lung,60.2 µM
same,TGI,EKVX NSCLC,65.3 µM
same,TGI,SN12C renal,91.1 µM
same,TGI,MCF7 breast,57.4 µM
same,TGI,DU-145 prostate,> 100 µM
same,TGI,SW-620 colon,> 100 µM
same,TGI,RPMI-8226 leukemia,48.1 µM
same,TGI,NCI/ADR-RES ovarian,53 µM
same,TGI,MDA-MB-231 breast,74.5 µM
same,TGI,CAKI-1 renal,87.2 µM
same,TGI,SR leukemia,21.3 µM
